Measurements from the supplement of paper PMC8612539.
Converted amounts (≈) assume the structure as drawn.

Columns and labels:
Mannheimia haemolytica = assay: minimum inhibitory concentration (MIC)
Procedure: (§1)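 Broth microdilution MIC (Sensititre BOPO7F bovine plate, CLSI methods) of 19 antimicrobials against field isolates of P. multocida, M. haemolytica, H. somni (deep nasopharyngeal swabs) and E. coli, Enterococcus spp. (rectal swabs) from weaned dairy heifers. Incubation 16-24 h at 35 C. MIC is the lowest concentration preventing visible growth. Values with <= or > lie at the tested range limits. Trimethoprim-sulfamethoxazole is given as the trimethoprim component of a 1:19 mixture.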

Enterococcus spp. = assay: minimum inhibitory concentration (MIC)
Procedure: as §1

CCCNC[C@]1(O)[C@H](C)O[C@@H](O[C@H]2[C@H](C)[C@@H](O[C@@H]3O[C@H](C)C[C@H](N(C)C)[C@H]3O)[C@](C)(O)C[C@@H](C)CN[C@H](C)[C@@H](O)[C@](C)(O)[C@@H](CC)OC(=O)[C@@H]2C)C[C@@]1(C)OC [Tulathromycin]
minimum inhibitory concentration [µg/mL]
Settings	Enterococcus spp.	Mannheimia haemolytica
isolate (source animal id): 2	≤ 8	–
isolate (source animal id): 8	–	≤ 8
isolate (source animal id): 13	–	≤ 8
isolate (source animal id): 18	–	≤ 8
isolate (source animal id): 21	–	≤ 8
isolate (source animal id): 25	–	16 (≈ 19.8 µM)
isolate (source animal id): 27	–	16 (≈ 19.8 µM)
isolate (source animal id): 28	–	≤ 8
isolate (source animal id): 30	–	≤ 8
isolate (source animal id): 31	–	16 (≈ 19.8 µM)
isolate (source animal id): 32	–	≤ 8
isolate (source animal id): 34	–	≤ 8
isolate (source animal id): 35	> 64	–
isolate (source animal id): 36	–	16 (≈ 19.8 µM)
isolate (source animal id): 37	–	16 (≈ 19.8 µM)
isolate (source animal id): 40	–	≤ 8
isolate (source animal id): 41	–	≤ 8
isolate (source animal id): 42	≤ 8	–
isolate (source animal id): 43	–	≤ 8
isolate (source animal id): 44	≤ 8	–
isolate (source animal id): 46	–	16 (≈ 19.8 µM)
isolate (source animal id): 49	–	16 (≈ 19.8 µM)
isolate (source animal id): 50	–	16 (≈ 19.8 µM)
isolate (source animal id): 51	–	≤ 8
isolate (source animal id): 52	–	≤ 8
isolate (source animal id): 53	–	≤ 8
isolate (source animal id): 55	–	≤ 8
isolate (source animal id): 56	–	≤ 8
isolate (source animal id): 57	–	> 64
isolate (source animal id): 79	≤ 8	–
isolate (source animal id): 88	≤ 8	–
isolate (source animal id): 91	≤ 8	–
isolate (source animal id): 92	16 (≈ 19.8 µM)	–
isolate (source animal id): 100	–	16 (≈ 19.8 µM)
isolate (source animal id): 103	–	16 (≈ 19.8 µM)
isolate (source animal id): 107	–	16 (≈ 19.8 µM)
isolate (source animal id): 108	–	16 (≈ 19.8 µM)
isolate (source animal id): 111	≤ 8	–
isolate (source animal id): 112	–	> 64
isolate (source animal id): 113	–	> 64
isolate (source animal id): 121	–	16 (≈ 19.8 µM)
isolate (source animal id): 122	> 64	16 (≈ 19.8 µM)
isolate (source animal id): 123	≤ 8	> 64
isolate (source animal id): 126	–	64 (≈ 79.4 µM)
isolate (source animal id): 133	≤ 8	> 64
isolate (source animal id): 135	–	> 64
isolate (source animal id): 138	–	64 (≈ 79.4 µM)
isolate (source animal id): 141	–	> 64
isolate (source animal id): 142	–	64 (≈ 79.4 µM)
isolate (source animal id): 145	–	16 (≈ 19.8 µM)
isolate (source animal id): 149	–	≤ 8
isolate (source animal id): 151	–	≤ 8
isolate (source animal id): 152	–	16 (≈ 19.8 µM)
isolate (source animal id): 154	–	≤ 8
isolate (source animal id): 158	> 64	–
isolate (source animal id): 159	–	> 64
isolate (source animal id): 162	–	64 (≈ 79.4 µM)
isolate (source animal id): 168	≤ 8	–
isolate (source animal id): 169	≤ 8	–
isolate (source animal id): 170	–	≤ 8
isolate (source animal id): 171	≤ 8	≤ 8
isolate (source animal id): 172	–	≤ 8
isolate (source animal id): 173	–	≤ 8
isolate (source animal id): 175	> 64	–
isolate (source animal id): 177	≤ 8	–
isolate (source animal id): 179	–	≤ 8
isolate (source animal id): 180	–	≤ 8
isolate (source animal id): 181	≤ 8	–
isolate (source animal id): 182	≤ 8	–
isolate (source animal id): 183	≤ 8	≤ 8
isolate (source animal id): 186	–	≤ 8
isolate (source animal id): 187	≤ 8	≤ 8
isolate (source animal id): 188	–	≤ 8
isolate (source animal id): 190	≤ 8	≤ 8
isolate (source animal id): 191	–	≤ 8
isolate (source animal id): 192	–	≤ 8
isolate (source animal id): 194	≤ 8	–
isolate (source animal id): 195	≤ 8	–
isolate (source animal id): 197	≤ 8	–
isolate (source animal id): 201	–	≤ 8
isolate (source animal id): 202	–	≤ 8
isolate (source animal id): 209	–	≤ 8
isolate (source animal id): 211	≤ 8	≤ 8
isolate (source animal id): 214	16 (≈ 19.8 µM)	–
isolate (source animal id): 220	–	≤ 8
isolate (source animal id): 221	–	≤ 8
isolate (source animal id): 222	≤ 8	–
isolate (source animal id): 223	≤ 8	≤ 8
isolate (source animal id): 228	> 64	–
isolate (source animal id): 230	> 64	–
isolate (source animal id): 233	–	16 (≈ 19.8 µM)
isolate (source animal id): 235	> 64	–
isolate (source animal id): 236	≤ 8	–
isolate (source animal id): 237	–	32 (≈ 39.7 µM)
isolate (source animal id): 239	≤ 8	–
isolate (source animal id): 241	> 64	16 (≈ 19.8 µM)
isolate (source animal id): 244	≤ 8	–
isolate (source animal id): 246	≤ 8	–
isolate (source animal id): 247	> 64	–
isolate (source animal id): 250	≤ 8	–
isolate (source animal id): 252	> 64	16 (≈ 19.8 µM)
isolate (source animal id): 253	–	16 (≈ 19.8 µM)
isolate (source animal id): 259	–	> 64
isolate (source animal id): 260	–	16 (≈ 19.8 µM)
isolate (source animal id): 262	–	16 (≈ 19.8 µM)
isolate (source animal id): 268	> 64	–
isolate (source animal id): 282	≤ 8	> 64
isolate (source animal id): 285	> 64	–
isolate (source animal id): 287	–	16 (≈ 19.8 µM)
isolate (source animal id): 288	–	≤ 8
isolate (source animal id): 289	≤ 8	–
isolate (source animal id): 290	≤ 8	–
isolate (source animal id): 291	–	≤ 8
isolate (source animal id): 293	–	16 (≈ 19.8 µM)
isolate (source animal id): 296	≤ 8	–
isolate (source animal id): 298	≤ 8	> 64
isolate (source animal id): 299	–	> 64
isolate (source animal id): 300	–	≤ 8
isolate (source animal id): 301	≤ 8	–
isolate (source animal id): 302	–	> 64
isolate (source animal id): 304	–	> 64
isolate (source animal id): 306	–	≤ 8
isolate (source animal id): 308	–	≤ 8
isolate (source animal id): 309	–	≤ 8
isolate (source animal id): 310	> 64	–
isolate (source animal id): 313	–	32 (≈ 39.7 µM)
isolate (source animal id): 318	–	≤ 8
isolate (source animal id): 320	≤ 8	≤ 8
isolate (source animal id): 321	–	32 (≈ 39.7 µM)
isolate (source animal id): 323	–	> 64
isolate (source animal id): 324	–	16 (≈ 19.8 µM)
isolate (source animal id): 326	–	32 (≈ 39.7 µM)
isolate (source animal id): 328	–	32 (≈ 39.7 µM)
isolate (source animal id): 329	–	32 (≈ 39.7 µM)
isolate (source animal id): 331	≤ 8	–
isolate (source animal id): 333	≤ 8	32 (≈ 39.7 µM)
isolate (source animal id): 335	–	16 (≈ 19.8 µM)
isolate (source animal id): 338	–	16 (≈ 19.8 µM)
isolate (source animal id): 341	> 64	–
